Data on 10 compounds can be found in PMC4143145 (European journal of medicinal chemistry, 2014).

Structures are written as SMILES.

What is called IC50 is the concentration that inhibits the measured activity by half.

The test system of assay [1] is PBL not stimulated with PHA. Put plainly: Cytotoxicity for resting peripheral blood lymphocytes. Type of assay: cell-based. The following applies: Homo sapiens, Lymphocyte, read-out: IC50 PBLresting.
Assay [2] deals with HeLa cells. Put plainly: Immunofluorescence of the microtubule network. Type of assay: cell-based, human. Particulars: 25 µM, 24 h.
Assay [3] deals with tubulin. Particulars: highest concentration examined 100 µM; cited from earlier work.
The subject of assay [4] is tubulin. Particulars: cited from earlier work.
Assay [5] has as its system Burkitt lymphoma CA46 cells. Put plainly: Growth inhibition of Burkitt lymphoma CA46 cells. Type of assay: cell-based. The following applies: Homo sapiens, CA46, read-out: IC50 in CA46 cells.
The test system of assay [6] is cyclin B. Put plainly: Western blot in HeLa cells. Particulars: 25 µM. Type of assay: cell-based, human. On the technique in general: Immunoblotting shows a protein as a band on a membrane.
For assay [7], the system named is cdc25C. Put plainly: Western blot in HeLa cells. Type of assay: cell-based, human. Particulars: 25 µM; for cdc25C forms: 24 h; for cdc25c expression: 48 h.
Assay [8] deals with aurora kinase A. Briefly: Western blot in HeLa cells. Type of assay: cell-based, human. Particulars: 25 µM, 24 h.
Assay [9] concerns γ-H2A.X. Briefly: Western blot in HeLa cells. Type of assay: cell-based, human. The following applies: 25 µM, 24 h.
For assay [10], the system named is Bcl-2. Briefly: Western blot in HeLa cells. Type of assay: cell-based, human. The following applies: 25 µM, 24 h.
The test system of assay [11] is Mcl-1. Briefly: Western blot in HeLa cells. Type of assay: cell-based, human. The following applies: 25 µM, 24 h.
The test system of assay [12] is HeLa cells. Put plainly: Annexin-V/PI flow cytometry. Type of assay: cell-based, human. The following applies: 24 or 48 h. (In general: In flow cytometry, cells or beads pass a laser one at a time.)

For the compound `COc1cccc(-c2c3c(c(OC)c4c2OCO4)[C@H]([C@H]2OC(=O)c4c2ccc(OC)c4OC)N(C)CC3)c1` [Compound 7, 9′-(3-Methoxyphenyl)-noscapine], the IC50 in assay [1] is > 200 µM. The “cells with induced spherical morphology (microtubule rearrangement)” value (shortened to “cells with induced spherical morphology”) in assay [2] was 70–80%.

Turning to `COc1ccc2c(c1OC)C(=O)O[C@@H]2[C@H]1c2c(cc3c(c2OC)OCO3)CCN1C` [Compound 1, (S)-6,7-dimethoxy-3-((R)-4′-methoxy-6′-methyl-5′,6′,7′,8′-tetrahydro[1,3]dioxolo-[4,5]isoquinolin-5′-yl)isobenzofuran-1(3H)-one], the “inhibition of colchicine binding (fluorescence)” value in assay [3] was “no activity”. Further, the “inhibition of [3H]colchicine binding to tubulin” value in [4] is “without success”.

As for `COc1ccc(/C=C\c2cc(OC)c(OC)c(OC)c2)cc1O` [CA-4, combretastatin A-4], the IC50 in assay [5] was found to be 0.02 ± 0.007 µM.

As to `COc1ccc2c(c1OC)C(=O)O[C@@H]2[C@H]1c2c(c(-c3ccc(C)cc3)c3c(c2OC)OCO3)CCN1C` [Compound 5, 9′-(4-Methylphenyl)-noscapine], the IC50 in [1] was > 200 µM. Also, the “cyclin B expression” value in assay [6] (24 h) is recorded as “increased expression”. Moreover, in [6] (48 h), the “cyclin B expression” value was “disappearance”. Further, in [7], the cdc25C forms result is given as “slower migrating forms” and the cdc25c expression entry is “strongly decreased”. Also, the aurora kinase levels entry in assay [8] is recorded as “increased”. Also, the “expression of γ-H2A.X” value in assay [9] is on record as “marked increase”.

`COc1ccccc1-c1c2c(c(OC)c3c1OCO3)[C@H]([C@H]1OC(=O)c3c1ccc(OC)c3OC)N(C)CC2` [Compound 6, 9′-(2-Methoxyphenyl)-noscapine]: in assay [1], the 50% inhibitory concentration (IC50) is > 200 µM.

`COc1ccc2c(c1OC)C(=O)O[C@@H]2[C@H]1c2c(c(-c3ccc4ccccc4c3)c3c(c2OC)OCO3)CCN1C` [Compound 9, 9′-(2-Naphthyl)-noscapine]: the half-inhibitory concentration (IC50) in assay [1] was > 200 µM.

As for `COc1ccc2c(c1OC)C(=O)O[C@@H]2[C@H]1c2c(c(C)c3c(c2OC)OCO3)CCN1C` [Compound 3, 9′-Methylnoscapine], the IC50 in [1] was > 200 µM. The “cells with induced spherical morphology” value in assay [2] is on record as 70–80%. Besides, the figures for the “cyclin B expression” value in assay [6] (24 h) and in assay [6] (48 h) were “increased expression” and “disappearance”, respectively. In addition, the aurora kinase levels entry in assay [8] is “increased”. Further, the “expression of γ-H2A.X” value in assay [9] is reported as “marked increase”. Besides, the Bcl-2 expression entry in [10] is given as “reduced”. The Mcl-1 band result in assay [11] is given as “strongly reduced”.

As to `COc1ccc(-c2c3c(c(OC)c4c2OCO4)[C@H]([C@H]2OC(=O)c4c2ccc(OC)c4OC)N(C)CC3)cc1` [Compound 8, 9′-(4-Methoxyphenyl)-noscapine], in [1], the IC50 was > 200 µM.

On to `COc1ccc2c(c1OC)C(=O)O[C@@H]2[C@H]1c2c(c(Br)c3c(c2OC)OCO3)CCN1C` [Compound 2, 9′-bromonoscapine, reference compound], for which the IC50 in assay [1] was > 200 µM. Also, the “cells with induced spherical morphology” value in [2] is 70–80%. Further, the cdc25c expression result in [7] is listed as “strongly decreased”. In addition, the Bcl-2 expression entry in [10] is recorded as “reduced”. For the same compound, in assay [11], the Mcl-1 band entry is “strongly reduced”. Besides, in assay [12], the “annexin-V positive cells (apoptosis)” value is given as “slightly more active than the other three compounds”. Moreover, the “inhibition of colchicine binding (fluorescence)” value in assay [3] is “inhibition of colchicine binding”.

For the compound `COc1ccc2c(c1OC)C(=O)O[C@@H]2[C@H]1c2c(c(-c3ccccc3)c3c(c2OC)OCO3)CCN1C` [Compound 4, 9′-Phenylnoscapine], in [1], the IC50 is > 200 µM. In addition, the figures for the “cyclin B expression” value in assay [6] (24 h) and in assay [6] (48 h) were “increased expression” and “disappearance”, respectively. Further, in assay [7], the cdc25C forms entry is listed as “slower migrating forms”. Further, the cdc25c expression entry in [7] is “strongly decreased”. Besides, the aurora kinase levels result in assay [8] was “increased”. For the same compound, the “expression of γ-H2A.X” value in assay [9] is recorded as “marked increase”. In addition, in assay [11], the Mcl-1 band result is reported as “strongly reduced”.
